According to PMC10605449 (Biosensors, 2023):
Numbering of substitutions follows the chain as printed.

How the values were obtained:
Format in all cases: binding
Details in all cases: 15 °C
MARK3(48-370) Mutant 2 = target: T1, MARK3(48-370) Mutant 2 (Homo sapiens, UniProt P27448, E139D/I62L/L128I/L130I/T204H/V116I/V205Q); test: SPR Extract2Chip, cellular biotinylated MARK3 Mutant 2, GSK461364A injected
T1 construct: made in house; host or cells: E. coli Rosetta 2, co-expressed with BirA; soluble lysate used without purification
T1 sequence (P27448 48-370 I62L/V116I/L128I/L130I/E139D/T204H/V205Q): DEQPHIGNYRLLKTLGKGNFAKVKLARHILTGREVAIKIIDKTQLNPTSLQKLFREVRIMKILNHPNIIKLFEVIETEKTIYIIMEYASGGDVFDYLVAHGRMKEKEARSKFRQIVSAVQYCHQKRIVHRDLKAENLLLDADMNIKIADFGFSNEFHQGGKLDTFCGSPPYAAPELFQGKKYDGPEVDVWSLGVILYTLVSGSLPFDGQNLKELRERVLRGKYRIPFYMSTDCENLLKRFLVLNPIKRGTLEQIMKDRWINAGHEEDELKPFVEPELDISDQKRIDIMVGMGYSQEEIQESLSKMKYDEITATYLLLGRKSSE
Protocol: (§1) The cellular biotinylation of MARK3(48-370) kinase domain mutants followed the same approach as described for CypD. The 6 different mutants were expressed in Rosetta^TM 2 in PB media, and induced with 100 µM IPTG overnight at 18 °C.
(§2) The cellular biotinylated MARK3 NUAK2-like mutants were immobilized using the approach described in Section 2.5.2. The soluble cell lysates were diluted to a final concentration of 200 µg/mL, then injected over the neutravidin surfaces for 200 or 1400 s in order to reach 1000 to 2300 RU.
(§3) The interaction analysis cycles consisted of 140 s of sample injection followed by 350 to 600 s of running buffer flow. The running buffer was composed of 20 mM HEPES pH 7.4, 100 mM NaCl, 5 mM MgCl2, 1 mM EGTA, 1 mM DTT, 0.05% Tween-20, and 2% DMSO, and the experiment was performed at 15 °C.
(§4) All sensorgrams were processed by first subtracting the binding response recorded from the control surface (reference spot, where only the avidin protein is immobilized), followed by subtraction of the buffer blank injection from the reaction spot. All datasets were fitted to a simple 1:1 Langmuir interaction model to determine the kinetic rate constants, and the interaction affinity was additionally calculated at a steady state when applicable. […]

MARK3(48-370) Mutant 4 = target: T2, MARK3(48-370) Mutant 4 (Homo sapiens, UniProt P27448, A68G/E139D/F199L/F67Y/I62L/L128I/L130I/N66T/T204H/V116I/V205Q); test: SPR Extract2Chip, cellular biotinylated MARK3 Mutant 4, GSK461364A injected
T2 construct: made in house; host or cells: E. coli Rosetta 2, co-expressed with BirA; soluble lysate used without purification
T2 sequence (P27448 48-370 I62L/N66T/F67Y/A68G/V116I/L128I/L130I/E139D/F199L/T204H/V205Q): T1 sequence (P27448 48-370 I62L/V116I/L128I/L130I/E139D/T204H/V205Q) with N19T, F20Y, A21G, F152L
Protocol: as §1, §2, §3, §4

MARK3(48-370) Mutant 6 = target: T3, MARK3(48-370) Mutant 6 (Homo sapiens, UniProt P27448, A68G/E139D/F199L/F67Y/G137R/I62L/L128I/L130I/L72K/N66T/T204H/V116I/V205Q); test: SPR Extract2Chip, cellular biotinylated MARK3 Mutant 6, GSK461364A injected
T3 construct: made in house; host or cells: E. coli Rosetta 2, co-expressed with BirA; soluble lysate used without purification
T3 sequence (P27448 48-370 I62L/N66T/F67Y/A68G/L72K/V116I/L128I/L130I/G137R/E139D/F199L/T204H/V205Q): T1 sequence (P27448 48-370 I62L/V116I/L128I/L130I/E139D/T204H/V205Q) with N19T, F20Y, A21G, L25K, G90R, F152L
Protocol: as §1, §2, §3, §4

C[C@@H](Oc1cc(-n2cnc3ccc(CN4CCN(C)CC4)cc32)sc1C(N)=O)c1ccccc1C(F)(F)F [GSK461364A]
kd ± SD (MARK3(48-370) Mutant 2): 0.081 ± 0.015 s⁻¹ | kd ± SD (MARK3(48-370) Mutant 4): 0.029 ± 0.0028 s⁻¹ | kd ± SD (MARK3(48-370) Mutant 6): 0.021 ± 0.0012 s⁻¹
